Test results from BindingDB's records for doi:10.1016/s0960-894x(02)00886-7 (National Institute of Radiological Sciences, 2002).

Test: In vitro binding affinity for PBR (peripheral benzodiazepine receptor) in monkey brain

Ki: 0.188 nM
SMILES: COc1ccc(OC)c(CN(C(C)=O)c2cc(F)ccc2Oc2ccccc2)c1
